Reference: US7569550B2, “14 and 15 membered ring compounds” (Glaxo Group Limited, priority 2003, dated 2009)
Where a name gives a salt, the structure may show the parent alone.

What was measured:
Assay in all cases: MIC, standard broth dilution method in microtitre
Format in all cases: cell-based
[1] = tested on: erythromycin resistant strains of Streptococcus pneumoniae
Procedure: (§1) Using a standard broth dilution method in microtitre, compounds were tested for antibacterial activity. The compounds in the above examples gave minimum inhibitory concentrations (MICs) less than 1 microgram per millilitre against erythromycin-sensitive and erythromycin-resistant strains of Streptococcus pneumoniae and Streptococcus pyogenes.

[2] = tested on: erythromycin resistant strains of Streptococcus pyogenes
Procedure: as §1

[3] = tested on: S. aureus Smith ATCC 13709; conditions: Staphylococcus aureus, ATCC13709
Procedure: as §1
(§2) In addition, the MIC (μg/ml) of test compounds against various organisms was determined including:
(§3) S. aureus Smith ATCC 13709, S. pneumoniae SP030, S. pyogenes 3565, E. faecalis ATCC 29212, H. influenzae ATCC 49247, M. catarrhalis ATCC 23246.

S. pyogenes 3565 = conditions: Streptococcus pyogenes
Procedure: as §1, §2, §3

E. faecalis ATCC 29212 = conditions: Enterococcus faecalis, ATCC29212
Procedure: as §1, §2, §3

S. pneumoniae SP030 = conditions: Streptococcus pneumoniae
Procedure: as §1, §2, §3

H. influenzae ATCC 49247 = conditions: Haemophilus influenzae, ATCC49247; H. influenzae ATCC 49247; read-out: MIC
Procedure: as §1, §2, §3

[4] = tested on: M. catarrhalis ATCC 23246; conditions: Moraxella catarrhalis, ATCC23246
Procedure: as §1, §2, §3

SMILES: CC[C@@H]1OC(=O)[C@H](C)[C@H](O[C@@H]2C[C@](C)(OC)[C@H](OCCCNCCNc3cc4c(cc3F)c(=O)c(C(=O)O)cn4C3CC3)[C@H](C)O2)[C@@H](C)[C@H](O[C@H]2O[C@@H](C)C[C@@H](N(C)C)[C@H]2O)[C@](C)(OC)C[C@H](C)C(=O)[C@H](C)[C@H]2OC(=O)O[C@@]12C [Example 11, 4″-O-{3-[2-(3-Carboxy-1-cyclopropyl-6-fluoro-4-oxo-1,4-dihydro-quinolin-7-ylamino)ethylamino]-propyl}-6-O-methyl-erythromycin A 11,12-carbonate formate]
- MIC [1]: ≤ 1 µg/mL
- MIC [2]: ≤ 1 µg/mL

SMILES: CC[C@H]1OC(=O)[C@H](C)[C@@H](O[C@H]2C[C@@](C)(OC)[C@@H](OCCCNCCOc3cc4c5c(c3)c(=O)c(C(=O)O)cn5CCC4)[C@H](C)O2)[C@H](C)[C@@H](O[C@@H]2O[C@H](C)CC(N(C)C)[C@H]2O)[C@](C)(OC)C[C@@H](C)C(=O)[C@@H](C)[C@H]2NC(=O)O[C@@]21C (stereo partly drawn) [Example 22, 4″-O-{3-[2-(2-Carboxy-1-oxo-6,7-dihydro-1H,5H-pyrido[3,2,1-ij]quinolin-9-yloxy)-ethylamino]-propyl}-6-O-methyl-11-desoxy-11-(R)-amino-erythromycin A 11,12-carbamate formate]
- MIC [1]: ≤ 1 µg/mL
- MIC [2]: ≤ 1 µg/mL
- MIC [3]: ≤ 1 µg/mL
- MIC (S. pyogenes 3565): ≤ 1 µg/mL
- MIC (E. faecalis ATCC 29212): ≤ 1 µg/mL
- MIC (S. pneumoniae SP030): ≤ 1 µg/mL

SMILES: CC[C@@H]1OC(=O)[C@H](C)[C@H](O[C@@H]2C[C@](C)(OC)[C@H](OCCNCCCc3ccc4c(c3)c(=O)c(C(=O)O)cn4CC)[C@H](C)O2)[C@@H](C)[C@H](O[C@H]2O[C@@H](C)C[C@@H](N(C)C)[C@H]2O)[C@](C)(O)C[C@H](C)CN(C)[C@@H](C)[C@H]2OC(=O)O[C@@]12C [Example 16, 4″-O-{2-[3-(3-Carboxy-1-ethyl-4-oxo-1,4-dihydro-quinolin-6-yl)propylamino]ethyl}azithromycin 11,12-carbonate]
- MIC (H. influenzae ATCC 49247): ≤ 4 µg/mL
- MIC [4]: ≤ 4 µg/mL

SMILES: CC[C@@H]1OC(=O)[C@H](C)[C@H](O[C@@H]2C[C@](C)(OC)[C@H](OCCCNCCCc3ccc4c(c3)c(=O)c(C(=O)O)cn4CC)[C@H](C)O2)[C@@H](C)[C@H](O[C@H]2O[C@@H](C)C[C@@H](N(C)C)[C@H]2O)[C@](C)(OC)C[C@H](C)C(=O)[C@H](C)[C@H](O)[C@@]1(C)O [Example 5, 4″-O-{3-[3-(3-Carboxy-1-ethyl-4-oxo-1,4-dihydro-quinolin-6-yl)-propylamino]-propyl}-6-O-methyl-erythromycin A bisformate]
- MIC [3]: ≤ 1 µg/mL
- MIC (S. pyogenes 3565): ≤ 1 µg/mL
- MIC (E. faecalis ATCC 29212): ≤ 1 µg/mL
- MIC (S. pneumoniae SP030): ≤ 1 µg/mL

SMILES: CC[C@@H]1OC(=O)[C@H](C)[C@H](O[C@@H]2C[C@](C)(OC)[C@H](OCCCNCCNc3cc4c(=O)c(C(=O)O)cn(C5CC5)c4cc3Cl)[C@H](C)O2)[C@@H](C)[C@H](O[C@H]2O[C@@H](C)C[C@@H](N(C)C)[C@H]2O)[C@](C)(OC)C[C@H](C)C(=O)[C@H](C)[C@H]2OC(=O)O[C@@]12C [Example 10, 4″-O-{3-[2-(3-Carboxy-7-chloro-1-cyclopropyl-4-oxo-1,4-dihydro-quinolin-6-ylamino)ethylamino]-propyl}-6-O-methyl-erythromycin A 11,12-carbonate formate]
- MIC [1]: ≤ 1 µg/mL
- MIC [2]: ≤ 1 µg/mL

SMILES: CC[C@@H]1OC(=O)[C@H](C)[C@H](O[C@@H]2C[C@](C)(OC)[C@H](OCCCN(C)CCNc3cc4c(=O)c(C(=O)O)cn(C5CC5)c4cc3Cl)[C@H](C)O2)[C@@H](C)[C@H](O[C@H]2O[C@@H](C)C[C@@H](N(C)C)[C@H]2O)[C@](C)(OC)C[C@H](C)C(=O)[C@H](C)[C@H]2OC(=O)O[C@@]12C [Example 14, 4″-O-(3-{[2-(3-Carboxy-7-chloro-1-cyclopropyl-4-oxo-1,4-dihydro-quinolin-6-ylamino)ethyl]-methylamino}-propyl)-6-O-methyl-erythromycin A 11,12-carbonate]
- MIC [1]: ≤ 1 µg/mL
- MIC [2]: ≤ 1 µg/mL
- MIC (H. influenzae ATCC 49247): ≤ 4 µg/mL
- MIC [4]: ≤ 4 µg/mL

SMILES: CC[C@@H]1OC(=O)[C@H](C)[C@H](O[C@@H]2C[C@](C)(OC)[C@H](OCCCNCCCc3ccc4c(c3)c(=O)c(C(=O)O)cn4CC)[C@H](C)O2)[C@@H](C)[C@H](O[C@H]2O[C@@H](C)C[C@@H](N(C)C)[C@H]2O)[C@](C)(OC)C[C@H](C)C(=O)[C@H](C)[C@H]2N(C)C(=O)O[C@@]12C [Example 7, 4″-O-{3-[2-(3-Carboxy-1-ethyl-4-oxo-1,4-dihydro-quinolin-6-yl)-propylamino]-propyl}-6-O-methyl-11-desoxy-11-(R)-methylamino-erythromycin A 11,12-carbamate formate]
- MIC [1]: ≤ 1 µg/mL
- MIC [2]: ≤ 1 µg/mL
- MIC [3]: ≤ 1 µg/mL
- MIC (S. pyogenes 3565): ≤ 1 µg/mL
- MIC (E. faecalis ATCC 29212): ≤ 1 µg/mL
- MIC (S. pneumoniae SP030): ≤ 1 µg/mL

SMILES: CC[C@H]1OC(=O)[C@H](C)[C@@H](O[C@H]2C[C@@](C)(OC)[C@@H](OCCCNCCCc3cc4c5c(c3)c(=O)c(C(=O)O)cn5CCC4)[C@H](C)O2)[C@H](C)[C@@H](O[C@@H]2O[C@H](C)C[C@H](N(C)C)[C@H]2O)[C@](C)(OC)C[C@@H](C)C(=O)[C@@H](C)[C@H]2NC(=O)O[C@@]21C [Example 25, 4″-O-{3-[3-(2-Carboxy-1-oxo-6,7-dihydro-1H,5H-pyrido[3,2,1-ij]quinolin-9-yl)-propylamino]-propyl}-6-O-methyl-11-desoxy-11-(R)-amino-erythromycin A 11,12-carbamate formate]
- MIC [1]: ≤ 1 µg/mL
- MIC [2]: ≤ 1 µg/mL
- MIC [3]: ≤ 1 µg/mL
- MIC (S. pyogenes 3565): ≤ 1 µg/mL
- MIC (E. faecalis ATCC 29212): ≤ 1 µg/mL
- MIC (S. pneumoniae SP030): ≤ 1 µg/mL

SMILES: CC[C@@H]1OC(=O)[C@H](C)[C@H](O[C@@H]2C[C@](C)(OC)[C@H](OCCCNCCCc3ccc4c(c3)c(=O)c(C(=O)O)cn4CC)[C@H](C)O2)[C@@H](C)[C@H](O[C@H]2O[C@@H](C)C[C@@H](N(C)C)[C@H]2O)[C@](C)(OC)C[C@H](C)C(=O)[C@H](C)[C@H]2OC(=O)O[C@@]12C [Example 9, 4″-O-{3-[3-(3-Carboxy-1-ethyl-4-oxo-1,4-dihydro-quinolin-6-yl)propylamino]-propyl}-6-O-methyl-erythromycin A 11,12-carbonate formate]
- MIC [1]: ≤ 1 µg/mL
- MIC [2]: ≤ 1 µg/mL

SMILES: CCc1cc(C(=O)O)c(=O)n2ccc(NCCNCCCO[C@H]3[C@H](C)O[C@@H](O[C@H]4[C@H](C)[C@@H](O[C@@H]5O[C@H](C)C[C@H](N(C)C)[C@H]5O)[C@](C)(OC)C[C@@H](C)C(=O)[C@@H](C)[C@H]5NC(=O)O[C@]5(C)[C@@H](CC)OC(=O)[C@@H]4C)C[C@@]3(C)OC)cc12 [Example 26, 4″-O-{3-[2-(3-Carboxy-1-ethyl-4-oxo-4-H-quinolizin-7-ylamino)-ethylamino]-propyl}-6-O-methyl-11-desoxy-11-(R)-amino-erythromycin A 11,12-carbamate formate]
- MIC [1]: ≤ 1 µg/mL
- MIC [2]: ≤ 1 µg/mL

SMILES: CC[C@@H]1OC(=O)[C@H](C)[C@H](O[C@@H]2C[C@](C)(OC)[C@H](OCCCNCCOc3ccc4c(c3)c(=O)c(C(=O)O)cn4CC)[C@H](C)O2)[C@@H](C)[C@H](O[C@H]2O[C@@H](C)C[C@@H](N(C)C)[C@H]2O)[C@](C)(OC)C[C@H](C)C(=O)[C@H](C)[C@H]2OC(=O)O[C@@]12C [Example 3, 4″-O-{3-[2-(3-Carboxy-1-ethyl-4-oxo-1,4-dihydro-quinolin-6-yloxy)-ethylamino]-propyl}-6-O-methyl-erythromycin A 11,12-carbonate bis trifluoroacetate]
- MIC [1]: ≤ 1 µg/mL
- MIC [2]: ≤ 1 µg/mL

SMILES: CC[C@@H]1OC(=O)[C@H](C)[C@H](O[C@@H]2C[C@](C)(OC)[C@H](OCCCNCCSc3ccc4c(c3)c(=O)c(C(=O)O)cn4CC)[C@H](C)O2)[C@@H](C)[C@H](O[C@H]2O[C@@H](C)C[C@@H](N(C)C)[C@H]2O)[C@](C)(OC)C[C@H](C)C(=O)[C@H](C)[C@H]2OC(=O)O[C@@]12C [Example 4, 4″-O-{3-[2-(3-Carboxy-1-ethyl-4-oxo-1,4-dihydro-quinolin-6-ylsulfanyl)-ethylamino]-propyl}-6-O-methyl-erythromycin A 11,12-carbonate bisformate]
- MIC [1]: ≤ 1 µg/mL
- MIC [2]: ≤ 1 µg/mL
- MIC (H. influenzae ATCC 49247): ≤ 4 µg/mL
- MIC [4]: ≤ 4 µg/mL

SMILES: CC[C@H]1OC(=O)[C@H](C)[C@@H](O[C@H]2C[C@@](C)(OC)[C@@H](OCCCNCCCc3cnc4c(c3)c(=O)c(C(=O)O)cn4CC)[C@H](C)O2)[C@H](C)[C@@H](O[C@@H]2O[C@H](C)C[C@H](N(C)C)[C@H]2O)[C@](C)(OC)C[C@@H](C)C(=O)[C@@H](C)[C@H]2NC(=O)O[C@@]21C [Example 24, 4″-O-{3-[3-(3-Carboxy-1-ethyl-4-oxo-1,4-dihydro-6-[1,8]naphthryidinyl)-propylamino]-propyl}-6-O-methyl-11-desoxy-11-(R)-amino-erythromycin A 11,12-carbamate formate]
- MIC [1]: ≤ 1 µg/mL
- MIC [2]: ≤ 1 µg/mL

SMILES: CC[C@@H]1OC(=O)[C@H](C)[C@H](O[C@@H]2C[C@](C)(OC)[C@H](OCCCNCCNc3nc4c(cc3F)c(=O)c(C(=O)O)cn4CC)[C@H](C)O2)[C@@H](C)[C@H](O[C@H]2O[C@@H](C)C[C@@H](N(C)C)[C@H]2O)[C@](C)(OC)C[C@H](C)C(=O)[C@H](C)[C@H]2OC(=O)O[C@@]12C [Example 12, 4″-O-{3-[2-(3-Carboxy-1-ethyl-6-fluoro-4-oxo-1,4-dihydro-[1,8]naphthyridin-7-ylamino)ethylamino]-propyl}-6-O-methyl-erythromycin A 11,12-carbonate formate]
- MIC [1]: ≤ 1 µg/mL
- MIC [2]: ≤ 1 µg/mL
